Experimental data published in patent publication US20250275993A1, “GLYCOSYLATION INHIBITORS AS THERAPEUTICS FOR STROKE” (The Regents of the University of California, priority 2022, published 2025).

Columns and labels:
ERK and AKT = test: Western blot of ERK and AKT activation in HUVEC and hDMVECs; assay type: cell-based, human; conditions: 40 μM
Description: Cells were allowed to reach-80% confluency in 12-well plates. […] At various time points, plates were taken out of the incubator and kept on ice. Cell monolayers were first washed once with ice-cold PBS before lysis with 250 μI of Pierce RIPA buffer (ThermoFisher Scientific, Rockford, IL) or use 50 mM Tris-HCl (pH 7.6), 150 mM NaCl, 10% Glycerol, 1% NP-40 containing protease/Phosphatase inhibitor cocktail (100×) (Cell signaling, #5872). Lysates were collected and mixed with 4× Bolt LDS Sample Buffer (Novex, Carlsbad, CA) in the presence of Halt protease inhibitors and phosphatase inhibitor cocktail (ThermoFisher scientific, #NP0007). The samples were subjected to SDS-PAGE (Bolt 4-12% Bis-Tris Plus, Invitrogen) using Bolt MES SDS running buffer or NuPAGE 3-8% Tris-Acetate gel using Tris-Acetate SDS running buffer (Novex). HUVECs (passage 6-8) were plated in EBM-2 basal medium (Lonza) with 0.2% FBS. Following overnight culture, cells were serum-starved in EBM-2 medium for 4 hrs prior to treatment with 50 ng/ml of VEGF165 or vehicle controls for various lengths. Equal amounts of protein lysates were analyzed by SDS-PAGE and blotted with the indicated antibodies. Proteins were transferred using Tris-Glycine buffer with 20% Methanol (Proteonomics grade) (Apex BioResearch Products). […]

human keratinocytes = test: Human keratinocyte proliferation assay; assay type: cell-based
Description: (§1) Proliferation assays with fibroblasts were done in low-glucose DMEM containing 1% FBS, with or without 10 ng/ml bFGF, or 100 ng/ml human EGF and the assay was ended at day 3. ARPE-19 cells were gently lifted with 0.025% trypsin and plated in RtEGM media (Clonetics) containing 2% FBS, L-glutamine, human bFGF and GA-1000. Once cells were attached to plates, serum-free RtEGM media was used to maintain the cultures. For proliferation assays, 1500 human RPE cells were plated into 96-well plates in low-glucose DMEM containing 1% FBS. A673, U87MG, Calu6 and AML12 cells were grown until confluent and were then harvested and re-suspended in appropriate assay media. For proliferation assays, cells were plated at the density of 1000-2000 cells/well in low-glucose DMEM containing 5% FBS or otherwise stated. Bovine pituitary cells (pituitary folliculostellate cells) were isolated as previously described. For proliferation assays with human epidermal keratinocytes, human DMVECs and human dermal fibroblast cells, 1000 cells/well were plated in low-glucose DMEM containing 1% FBS with or without various growth factors. The assay was ended at day 3 for bovine pituitary cells and at day 4 for all the other cell types. […] Four days later, tumor cell growth was measured by the MTS assay (Promega, Madison, WI), a colorimetric assay that measures metabolic activity of viable cells. […]

skin wound = test: Skin wound healing model (splinted wound); assay type: in vivo, mouse; conditions: topical 20 μg daily; mice; PBS group 81.5%
Excerpt: The model has been previously described. Briefly, C57BL/6 female mice (8-10 weeks old) were obtained from Jackson labs (Sacramento, CA). A fresh, full-thickness punch wound (4 mm diameter) using a punch (Acu Punch, Acuderm inc. Ft. Lauderdale, FL) splinted with a sterile neoprene ring (6-mm outer diameter and 4-mm inner diameter), fastened with 5-6 sutures (4-0 nylon) under the influence of Isoflurane was created on the back of the animal in a Class II Biological Safety Cabinet. For all surgical procedures, sterile technique was followed. Buprenorphine was given subcutaneously prior to awakening from anesthesia for anticipated pain. Mice were monitored until fully awake and were housed individually to minimize damage/biting/fighting to the surgical site. […] Treatment agents were prepared in PBS, sterile-filtered and 25 μl solution was applied daily directly to a wound bed for the first 4-5 days under the influence of Isoflurane, followed by daily observation. Wound closure was monitored by regular imaging and the wound area was quantified using ImageJ (National Institutes of Health, Bethesda, MD, USA). […] Epithelial gap was measured histomorphometrically using AxioVision LE Rel.4.4 software. […] Small vessels stained positive for CD31 were counted microscopically on 10 fields (20×) taken around the wound.

ARPE-19 RPE cells = test: Human RPE proliferation assay; assay type: cell-based
Description: as §1

[1] = alone or in combination with growth factors

Compound	activation of ERK and AKT in human ECs by glycosylation inhibitors (ERK and AKT)	sensitivity of human keratinocytes to ManN toxicity (human keratinocytes; 5 mM level of ManN)	proliferation of human keratinocytes (human keratinocytes; [1])	average closure of the wound on day 4 (skin wound) [%]	sensitivity of human RPE cells to ManN toxicity (ARPE-19 RPE cells; 5 mM level of ManN)	proliferation of human RPEs (ARPE-19 RPE cells; [1])
O=C1N[C@@H]2[C@@H](O)[C@@H](O)[C@H](O)[C@@H](CO)N2C1=O [Kif, Kifunensine, reference compound]	significantly activate ERK and AKT					
N[C@H](C=O)[C@@H](O)[C@H](O)[C@H](O)CO [ManN, 2-Amino-2-deoxy-D-mannose]		least sensitive ones	no increases in proliferation	75.6	least sensitive ones	no increases in proliferation
